The results in this text go back to ChEMBL document CHEMBL1201862, “PubChem BioAssay data set” (2004).

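96-well plates; 48 h exposure; 5 concentrations. Endpoints by linear interpolation between flanking doses. Not reached: highest tested concentration assigned. GI50 marks 50% less growth.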 The source made the active and inactive calls. Cut-off read from the data, not from the text of the source: active = GI50 up to about 1.1 µM and inactive = higher.

Some test systems named below: IGROV-1; HCT-15; HCC 2998; A498; UACC-62; SK-OV-3; MOLT-4; HOP-92; T47D; PC-3; NCI/ADR-RES; K562; RPMI-8226; Malme-3M; 786-0; OVCAR-3; SNB-75; M14; U-251; BT-549.
Assay in all cases: NCI anticancer screen, dose series, 48 h

Take `Clc1ccc(-c2noc(CN3CCCCC3)n2)cc1`: the GI50 in the experiment on IGROV-1 was > 100 µM (inactive); in the experiment with HCT-15, greater than 100 µM; in the experiment on HCC 2998, 58.9 µM (inactive); in the experiment on A498, > 100 µM (inactive); with UACC-62 it was > 100 µM (inactive); with SK-OV-3 it was > 100 µM (inactive). For the same compound, the GI50 in the experiment on MOLT-4 is 49.7 µM (inactive); in the experiment on HOP-92, > 100 µM (inactive); in the experiment on T47D, 47.8 µM (inactive); with PC-3 it was > 100 µM (inactive); in the experiment on NCI/ADR-RES it was 46.5 µM (inactive); in the experiment with K562, 55.8 µM (inactive). Further, the GI50 with RPMI-8226 is 43.9 µM (inactive); with Malme-3M, > 100 µM (inactive); in the experiment on 786-0, > 100 µM (inactive); in the experiment with OVCAR-3 it was 67.9 µM (inactive); in the experiment with SNB-75, > 100 µM (inactive); in the experiment on M14, > 100 µM (inactive). The GI50 with U-251 and in the experiment on BT-549 was > 100 µM (inactive) throughout.

For the compound `O=C1/C(=C/c2ccc(O)cc2)CCc2ccc([N+](=O)[O-])cc21`, the GI50 with IGROV-1 was 61.2 µM (inactive); in the experiment with HCT-15, greater than 100 µM; in the experiment with HCC 2998 it was > 100 µM (inactive); in the experiment on A498 it was 34.6 µM (inactive); in the experiment on UACC-62, > 74.3 µM (inactive); in the experiment with SK-OV-3, > 84.7 µM (inactive). In addition, the GI50 was 3.63 µM (inactive) in the experiment with MOLT-4; 29.1 µM (inactive) in the experiment with HOP-92; 68.7 µM (inactive) in the experiment on T47D; > 100 µM (inactive) in the experiment with PC-3; 73.5 µM (inactive) in the experiment with NCI/ADR-RES; > 100 µM (inactive) in the experiment on K562. In addition, the GI50 with RPMI-8226 is 2.07 µM (inactive); with Malme-3M, 98.2 µM (inactive); with 786-0, > 80.5 µM (inactive); in the experiment with OVCAR-3, > 78.2 µM (inactive); in the experiment with SNB-75 it was 53.2 µM (inactive); in the experiment on M14, > 100 µM (inactive). Further, the results for the GI50 with U-251 and in the experiment with BT-549 were 60.4 µM (inactive) and 31.3 µM (inactive), respectively.

With `Cc1ccccc1NC(=O)CC(=O)NNC(Sc1ccccc1)c1cc(/N=N/c2ccc(Br)cc2)ccc1O` (stereo not given), the GI50 with IGROV-1 was 8.02 µM (inactive); in the experiment with HCT-15, 0.836 µM; in the experiment on HCC 2998, 7.36 µM (inactive); in the experiment on A498, 2.4 µM (inactive); in the experiment with UACC-62, 1 µM (active); in the experiment on SK-OV-3, 5.26 µM (inactive). Also, the GI50 with MOLT-4 was 0.332 µM (active); with HOP-92, 5.97 µM (inactive); with T47D, 3.93 µM (inactive); with PC-3, 0.877 µM (active); in the experiment on NCI/ADR-RES, 1.71 µM (inactive); with K562, 2.73 µM (inactive). The GI50 with RPMI-8226 is 1.7 µM (inactive); in the experiment with Malme-3M, 3.26 µM (inactive); with 786-0, 0.551 µM (active); in the experiment on OVCAR-3, 0.368 µM (active); in the experiment with SNB-75, 3.79 µM (inactive); in the experiment with M14 it was 0.723 µM (active). The GI50 is 2.64 µM (inactive) in the experiment on U-251 and 3.72 µM (inactive) in the experiment with BT-549.

Regarding `CCOC(=O)C(NC(=O)CC)(Nc1ccc(S(=O)(=O)Nc2ccc(OC)nn2)cc1)C(F)(F)F` (stereo not given), the GI50 was > 100 µM (inactive) in the experiment with IGROV-1; greater than 100 µM in the experiment on HCT-15; 27.4 µM (inactive) with HCC 2998; > 100 µM (inactive) in the experiment with A498; > 100 µM (inactive) in the experiment with UACC-62; > 100 µM (inactive) with SK-OV-3. For the same compound, the GI50 in the experiment with MOLT-4, in the experiment on HOP-92, in the experiment with T47D, with PC-3, in the experiment with NCI/ADR-RES and in the experiment on K562 was > 100 µM (inactive) throughout. Besides, the GI50 in the experiment with RPMI-8226, in the experiment on Malme-3M, in the experiment on 786-0, in the experiment on OVCAR-3, in the experiment with SNB-75 and in the experiment with M14 was > 100 µM (inactive) in each case. Besides, the GI50 in the experiment with U-251 and with BT-549 was > 100 µM (inactive) throughout.

For `CC(=N/NC(=S)N1CCCCC1)/C(C)=N\NC(=S)N1CCCCC1`, the GI50 in the experiment on IGROV-1 is 1.58 µM (inactive); in the experiment on HCT-15, 2.34 µM; with HCC 2998 it was 2.12 µM (inactive); with A498 it was 1.5 µM (inactive); in the experiment on UACC-62, 1.35 µM (inactive); in the experiment on SK-OV-3, 1.83 µM (inactive). In addition, the GI50 in the experiment on MOLT-4 was 2.13 µM (inactive); in the experiment with HOP-92 it was 1.48 µM (inactive); in the experiment with T47D, 1.54 µM (inactive); in the experiment on PC-3, 1.86 µM (inactive); with NCI/ADR-RES, 2.42 µM (inactive); in the experiment with K562 it was 2.25 µM (inactive). For the same compound, the GI50 was 2.19 µM (inactive) in the experiment with RPMI-8226; 2.08 µM (inactive) with Malme-3M; 1.76 µM (inactive) in the experiment on 786-0; 1.74 µM (inactive) in the experiment with OVCAR-3; 1.45 µM (inactive) in the experiment on SNB-75; 2.19 µM (inactive) in the experiment on M14. In addition, the GI50 with U-251 is 1.97 µM (inactive); with BT-549, 1.92 µM (inactive).

With `Cc1ccc(N2C(=O)C=C(C3=C(O)C(=O)N(c4ccc(C)cc4)C3=O)C2=O)cc1`, the GI50 with IGROV-1 was > 100 µM (inactive); in the experiment on HCT-15, greater than 100 µM; with HCC 2998, > 100 µM (inactive); in the experiment on A498, > 100 µM (inactive); with UACC-62 it was > 100 µM (inactive); with SK-OV-3, > 100 µM (inactive). Also, the GI50 in the experiment with MOLT-4 was > 100 µM (inactive); in the experiment with HOP-92, 46.5 µM (inactive); with T47D, > 100 µM (inactive); in the experiment on PC-3 it was > 100 µM (inactive); in the experiment on NCI/ADR-RES it was > 100 µM (inactive); in the experiment on K562, > 100 µM (inactive). In addition, the GI50 in the experiment with RPMI-8226 was > 100 µM (inactive); with Malme-3M it was > 100 µM (inactive); in the experiment on 786-0, > 100 µM (inactive); with OVCAR-3, > 100 µM (inactive); with SNB-75 it was 42.3 µM (inactive); in the experiment with M14, > 100 µM (inactive). Further, the GI50 in the experiment on U-251 and in the experiment with BT-549 was > 100 µM (inactive) each time.

`CC(=O)OC(Cc1ccc2ccccc2n1)(C(F)(F)F)C(F)(F)F`: the GI50 with IGROV-1 was 1.31 µM (inactive); in the experiment with HCT-15 it was 1.97 µM; with HCC 2998, 0.851 µM (active); in the experiment on A498, 1.95 µM (inactive); in the experiment with UACC-62 it was 1.32 µM (inactive); in the experiment with SK-OV-3, 14.3 µM (inactive). The GI50 with MOLT-4 is 0.0796 µM (active); in the experiment on HOP-92, 0.142 µM (active); with T47D, 0.181 µM (active); in the experiment with PC-3 it was 2.09 µM (inactive); with NCI/ADR-RES it was 1.72 µM (inactive); with K562, 0.594 µM (active). Besides, the GI50 was 0.0272 µM (active) in the experiment with RPMI-8226; 0.849 µM (active) with Malme-3M; 1.52 µM (inactive) with 786-0; 0.676 µM (active) in the experiment with OVCAR-3; 4.36 µM (inactive) with SNB-75; 1.23 µM (inactive) in the experiment with M14. Further, the values for the GI50 in the experiment with U-251 and in the experiment on BT-549 were 5.74 µM (inactive) and 1.6 µM (inactive), respectively.

As to `Cc1c(C)c(CC(=O)N2CC2)c(C)c(C)c1CC(=O)N1CC1`, the GI50 was 17.1 µM (inactive) in the experiment on IGROV-1; 16.8 µM in the experiment on HCT-15; 11.4 µM (inactive) with HCC 2998; 16 µM (inactive) with A498; 3.33 µM (inactive) in the experiment with UACC-62; 16.8 µM (inactive) in the experiment with SK-OV-3. In addition, the GI50 in the experiment with MOLT-4 is 0.441 µM (active); in the experiment on HOP-92 it was 9.48 µM (inactive); with T47D, 6.61 µM (inactive); in the experiment with PC-3, 16 µM (inactive); in the experiment on NCI/ADR-RES it was 11 µM (inactive); in the experiment with K562 it was 12.6 µM (inactive). Moreover, the GI50 with RPMI-8226 is 10.6 µM (inactive); with Malme-3M it was 12.1 µM (inactive); in the experiment on 786-0, 3.56 µM (inactive); in the experiment on OVCAR-3, 19.5 µM (inactive); with SNB-75, 6.73 µM (inactive); with M14, 5.25 µM (inactive). Moreover, the GI50 was 5.56 µM (inactive) in the experiment with U-251 and 21.9 µM (inactive) in the experiment on BT-549.

On to `O=c1[nH]c(=O)n(C2CC(O)C(CO)O2)c2nc3ccc4cc5ccccc5cc4c3nc12` (stereo not given), for which the GI50 in the experiment with IGROV-1 is > 100 µM (inactive); in the experiment with HCT-15, greater than 100 µM; in the experiment on HCC 2998, > 100 µM (inactive); with A498, > 100 µM (inactive); in the experiment on UACC-62, > 100 µM (inactive); with SK-OV-3, 53.6 µM (inactive). For the same compound, the GI50 in the experiment with MOLT-4, with HOP-92, with T47D, with PC-3, in the experiment with NCI/ADR-RES and in the experiment on K562 was > 100 µM (inactive) in each case. Also, the GI50 in the experiment on RPMI-8226, with Malme-3M, in the experiment on 786-0, in the experiment with OVCAR-3, with SNB-75 and with M14 was > 100 µM (inactive) in each case. Besides, the GI50 in the experiment on U-251 and in the experiment with BT-549 was > 100 µM (inactive) each time.

Consider `COc1cc(/C=C(\C#N)C(N)=C(C#N)C#N)cc(O)c1O`, for which the GI50 is > 66.8 µM (inactive) in the experiment on IGROV-1; greater than 68.5 µM in the experiment on HCT-15; > 100 µM (inactive) with HCC 2998; > 100 µM (inactive) in the experiment on A498; > 93.5 µM (inactive) in the experiment on UACC-62; > 100 µM (inactive) with SK-OV-3. For the same compound, the GI50 with MOLT-4 is 55.2 µM (inactive); with HOP-92, > 68.4 µM (inactive); in the experiment on T47D, 91.8 µM (inactive); in the experiment on PC-3 it was > 100 µM (inactive); in the experiment on NCI/ADR-RES it was > 100 µM (inactive); with K562, > 79.6 µM (inactive). The GI50 is > 100 µM (inactive) in the experiment on RPMI-8226; > 100 µM (inactive) with Malme-3M; > 100 µM (inactive) in the experiment on 786-0; > 56.4 µM (inactive) in the experiment with OVCAR-3; > 88.5 µM (inactive) in the experiment on SNB-75; > 100 µM (inactive) in the experiment on M14. Also, the GI50 with U-251 is > 88.7 µM (inactive); in the experiment on BT-549, > 100 µM (inactive).
